Laboratory results published in patent US10966426B2, “Herbicidal compositions comprising phenylpyrimidines” (BASF SE, priority 2016, dated 2021).

Columns and labels:
Type in all cases: in vivo
[1] = test system: Poa annua; assay: greenhouse pre-emergence treatment, POAAN; details: clomazone solo (CS 360 g/l), 20 DAT
From the text: (§1) The culture containers used were plastic pots containing loamy sand with approximately 3.0% of humus as substrate. The seeds of the test plants were sown separately for each species.
(§2) For the pre-emergence treatment, the active compounds, suspended or emulsified in water, were applied directly after sowing by means of finely distributing nozzles. The containers were irrigated gently to promote germination and growth and subsequently covered with transparent plastic hoods until the plants had rooted. This cover caused uniform germination of the test plants unless this was adversely affected by the active compounds.
(§3) Depending on the species, the plants were kept at 10-25° C. and 20-35° C., respectively.
(§4) The test period extended over 2 to 4 weeks. During this time, the plants were tended and their response to the individual treatments was evaluated.
(§5) Evaluation was carried out using a scale from 0 to 100. 100 means no emergence of the plants, or complete destruction of at least the above-ground parts, and 0 means no damage or normal course of growth. A good herbicidal activity is given at values of at least 70, and very good herbicidal activity is given at values of at least 85.
(§6) The respective stated components A and B, and if appropriate, C were formulated as a 10% by weight strength emulsion concentrate and, with addition of the amount of solvent system, introduced into the spray liquor used for applying the active compound. In the examples, the solvent used was water.
(§7) In the examples below, using the method of S. R. Colby (1967) “Calculating synergistic and antagonistic responses of herbicide combinations”, Weeds 15, p. 22ff., the value E, which is expected if the activity of the individual active compounds is only additive, was calculated. E=X+Y−(X·Y/100) where X=effect in percent using herbicide A at an application rate a; • Y=effect in percent using herbicide B at application rate b; • E=expected effect (in %) of herbicide A+herbicide B at application rates a+b.

[2] = test system: Alopecurus myosuroides; assay: greenhouse pre-emergence treatment, ALOMY; details: clomazone solo (CS 360 g/l), 30 gai/ha, 20 DAT
From the text: as §1, §2, §3, §4, §5, §6, §7

[3] = test system: Avena fatua; assay: greenhouse pre-emergence treatment, AVEFA; details: Avena fatua, 480 h, read-out: % activity
Method in brief: (§8)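 Seeds were sown per species in pots of loamy sand with about 3.0% humus, sprayed with the aqueous spray liquor directly after sowing, watered and hooded until rooted, then kept at 10-25° C. or 20-35° C. for 2 to 4 weeks. Damage was scored 0 (none) to 100 (no emergence/complete destruction).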

[4] = test system: Helianthus annuus; assay: greenhouse pre-emergence treatment, HELAN; details: Helianthus annuus, 480 h, read-out: % activity
Method in brief: as §8

[5] = test system: Lolium multiflorum; assay: greenhouse pre-emergence treatment, LOLMU; details: Lolium multiflorum, 480 h, read-out: % activity
From the text: as §1, §2, §3, §4, §5, §6, §7

[6] = test system: Polygonum convolvulus; assay: greenhouse pre-emergence treatment, POLCO; details: Fallopia convolvulus, 480 h, read-out: % activity
From the text: as §1, §2, §3, §4, §5, §6, §7

[7] = test system: Setaria viridis; assay: greenhouse pre-emergence treatment, SETVI; details: SETVI, 20 DAT
From the text: as §1, §2, §3, §4, §5, §6, §7

[8] = test system: Galium aparine; assay: greenhouse pre-emergence treatment, GALAP; details: Galium aparine, 480 h, read-out: % activity
From the text: as §1, §2, §3, §4, §5, §6, §7

[9] = test system: Echinocloa crus-galli; assay: greenhouse pre-emergence treatment, ECHCG; details: clomazone solo (CS 360 g/l), 120 gai/ha, 20 DAT
From the text: as §1, §2, §3, §4, §5, §6, §7

[10] = test system: Digitaria sanguinalis; assay: greenhouse pre-emergence treatment, DIGSA
From the text: as §1, §2, §3, §4, §5, §6, §7

[11] = test system: Bromus sterilis; assay: greenhouse pre-emergence treatment, BROST; details: Bromus sterilis, 480 h, read-out: % activity
Method in brief: as §8

[12] = test system: Brachiaria decumbens; assay: greenhouse pre-emergence treatment, BRADC; details: BRADC, 20 DAT; for % activity: clomazone solo (CS 360 g/l)
Method in brief: as §8

[13] = test system: Apera spica-venti; assay: greenhouse pre-emergence treatment, APESV; details: clomazone solo (CS 360 g/l), 20 DAT
From the text: as §1, §2, §3, §4, §5, §6, §7

[14] = test system: Ambrosia elatior; assay: greenhouse pre-emergence treatment, AMBEL; details: AMBEL, 20 DAT; for % activity: clomazone solo (CS 360 g/l)
Method in brief: as §8

CC1(C)CON(Cc2ccccc2Cl)C1=O [clomazone]
% activity ([1]; 15 gai/ha): 0%
% activity ([1]; 30 gai/ha): 0%
% activity ([1]; 60 gai/ha): 30%
% activity ([1]; 120 gai/ha): 80%
% activity [2]: 0%
pest or weed control at 30 g/ha [3]: 0%
plant injury at 30 g/ha [4]: 10%
pest or weed control at 60 g/ha [5]: 40%
pest or weed control at 120 g/ha [5]: 60%
pest or weed control at 60 g/ha [6]: 60%
pest or weed control at 120 g/ha [6]: 75%
% activity ([7]; solo clomazone (CS 360 g/l) 30 gai/ha): 0%
% activity ([7]; clomazone solo (CS 360 g/l), 60 gai/ha): 30%
% activity ([7]; clomazone solo (CS 360 g/l), 120 gai/ha): 65%
% activity ([7]; clomazone solo (CS 360 g/l), 125 gai/ha): 65%
pest or weed control at 30 g/ha [8]: 80%
% activity [9]: 90%
pest or weed control at 60 g/ha ([10]; Digitaria sanguinalis, 480 h, DIGSA, 20 DAT, solo clomazone (CS 360 g/l) 60 gai/ha): 0%
pest or weed control at 120 g/ha ([10]; Digitaria sanguinalis, 480 h, DIGSA, 20 DAT, solo clomazone (CS 360 g/l) 120 gai/ha): 30%
pest or weed control at 15 g/ha ([10]; Digitaria sanguinalis, 480 h, read-out: % activity): 0%
% activity ([10]; clomazone solo (CS 360 g/l), 120 gai/ha, 20 DAT, DIGSA): 30%
pest or weed control at 30 g/ha [11]: 0%
pest or weed control at 120 g/ha [11]: 30%
pest or weed control at 15 g/ha ([12]; Urochloa decumbens, 480 h, solo clomazone (CS 360 g/l) 15 gai/ha): 0%
pest or weed control at 30 g/ha ([12]; Urochloa decumbens, 480 h, solo clomazone (CS 360 g/l) 30 gai/ha): 0%
pest or weed control at 60 g/ha ([12]; Urochloa decumbens, 480 h, solo clomazone (CS 360 g/l) 60 gai/ha): 0%
pest or weed control at 120 g/ha ([12]; Urochloa decumbens, 480 h, solo clomazone (CS 360 g/l) 120 gai/ha): 30%
% activity ([12]; 30 gai/ha): 0%
% activity ([12]; 60 gai/ha): 0%
% activity ([12]; 120 gai/ha): 30%
% activity ([13]; 15 gai/ha): 20%
% activity ([13]; 120 gai/ha): 65%
pest or weed control at 15 g/ha ([14]; Ambrosia artemisiifolia, 480 h, solo clomazone (CS 360 g/l) 15 gai/ha): 0%
pest or weed control at 60 g/ha ([14]; Ambrosia artemisiifolia, 480 h, solo clomazone (CS 360 g/l) 60 gai/ha): 10%
pest or weed control at 120 g/ha ([14]; Ambrosia artemisiifolia, 480 h, solo clomazone (CS 360 g/l) 120 gai/ha): 10%
pest or weed control at 1250 g/ha ([14]; Ambrosia artemisiifolia, 480 h, solo clomazone (CS 360 g/l) 1250 gai/ha): 10%
% activity ([14]; 60 gai/ha): 10%
% activity ([14]; 120 gai/ha): 10%
